From patent US20220411367A1, “ARYLMETHYLENE HETEROCYCLIC COMPOUNDS AS KV1.3 POTASSIUM SHAKER CHANNEL BLOCKERS” (D. E. Shaw Research, LLC, priority 2019, published 2022)

What was measured:
Kv1.3 potassium channel = target: T1, Kv1.3 potassium channel (Homo sapiens, UniProt P22001); assay: Kv1.3 potassium channel blocker activity, automated whole-cell patch clamp (Patchliner); type: cell-based; conditions: CHO-K1 cells stably expressing Kv1.3; whole cell current inhibition; read-out: Kvl.3 IC50
T1 construct: expressed in transfected cells
Description: This assay is used to evaluate the disclosed compounds' activities as Kv1.3 potassium channel blockers.
CHO-K1 cells stably expressing Kv1.3 were grown in DMEM containing 10% heat-inactivated FBS, 1 mM Sodium Pyruvate, 2 mM L-Glutamine and G418 (500 μg/ml).
(§1) All compounds were dissolved in DMSO at 30 mM.
The currents were evoked by applying 100 ms depolarizing pulses from −90 mV (holding potential) to +40 mV were applied with 0.1 Hz frequency. […] 10 second breaks were used between pulse trains (see Table A below).
Data were sampled at 10 kHz without filtering. Passive leak currents were subtracted online using a P/4 procedure (HEKA Elektronik Dr. Schulze GmbH). […] Total compound incubation time before the next pulse train was not longer than 10 seconds. Peak current inhibition was observed during compound equilibration.

hERG channel = target: T2, hERG channel (Homo sapiens, UniProt Q12809); assay: hERG electrophysiology, automated whole-cell patch clamp (Patchliner); type: cell-based; conditions: CHO-K1 cells stably expressing hERG; whole cell current inhibition; read-out: hERG IC50
T2 construct: expressed in transfected cells
Description: as §1
The pulse frequency was 0.3 Hz.
Data were sampled at 10 kHz without filtering.

T2 sequence (Q12809 whole entry): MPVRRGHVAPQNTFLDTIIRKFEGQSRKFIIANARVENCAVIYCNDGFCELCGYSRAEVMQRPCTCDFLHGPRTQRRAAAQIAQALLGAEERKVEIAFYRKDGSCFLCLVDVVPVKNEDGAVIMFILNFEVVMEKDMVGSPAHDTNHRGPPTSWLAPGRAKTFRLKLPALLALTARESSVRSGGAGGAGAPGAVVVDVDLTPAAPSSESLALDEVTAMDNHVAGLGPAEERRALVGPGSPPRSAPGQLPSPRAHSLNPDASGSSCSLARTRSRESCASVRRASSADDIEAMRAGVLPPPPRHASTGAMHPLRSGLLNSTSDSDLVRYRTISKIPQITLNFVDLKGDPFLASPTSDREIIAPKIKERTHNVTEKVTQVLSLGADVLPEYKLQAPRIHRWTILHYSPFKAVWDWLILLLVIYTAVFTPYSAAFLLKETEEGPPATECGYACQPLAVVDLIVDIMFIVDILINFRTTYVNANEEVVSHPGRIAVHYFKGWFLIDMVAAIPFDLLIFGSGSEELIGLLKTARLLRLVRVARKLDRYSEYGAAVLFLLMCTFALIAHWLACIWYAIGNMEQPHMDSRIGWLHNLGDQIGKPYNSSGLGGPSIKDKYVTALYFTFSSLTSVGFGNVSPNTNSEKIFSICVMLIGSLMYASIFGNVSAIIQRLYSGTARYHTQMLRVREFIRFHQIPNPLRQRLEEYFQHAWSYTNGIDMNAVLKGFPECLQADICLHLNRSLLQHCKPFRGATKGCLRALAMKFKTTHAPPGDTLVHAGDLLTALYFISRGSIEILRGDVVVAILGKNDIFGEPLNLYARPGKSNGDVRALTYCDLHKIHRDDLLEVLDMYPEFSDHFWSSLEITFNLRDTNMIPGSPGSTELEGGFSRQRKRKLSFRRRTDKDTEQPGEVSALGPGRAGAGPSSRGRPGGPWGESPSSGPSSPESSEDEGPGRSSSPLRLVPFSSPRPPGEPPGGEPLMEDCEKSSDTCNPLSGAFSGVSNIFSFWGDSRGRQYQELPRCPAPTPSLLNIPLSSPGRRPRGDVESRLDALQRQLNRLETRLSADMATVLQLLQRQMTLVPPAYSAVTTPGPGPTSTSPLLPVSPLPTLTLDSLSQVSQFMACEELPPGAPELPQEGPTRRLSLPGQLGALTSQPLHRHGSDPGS
T1 sequence (P22001 whole entry): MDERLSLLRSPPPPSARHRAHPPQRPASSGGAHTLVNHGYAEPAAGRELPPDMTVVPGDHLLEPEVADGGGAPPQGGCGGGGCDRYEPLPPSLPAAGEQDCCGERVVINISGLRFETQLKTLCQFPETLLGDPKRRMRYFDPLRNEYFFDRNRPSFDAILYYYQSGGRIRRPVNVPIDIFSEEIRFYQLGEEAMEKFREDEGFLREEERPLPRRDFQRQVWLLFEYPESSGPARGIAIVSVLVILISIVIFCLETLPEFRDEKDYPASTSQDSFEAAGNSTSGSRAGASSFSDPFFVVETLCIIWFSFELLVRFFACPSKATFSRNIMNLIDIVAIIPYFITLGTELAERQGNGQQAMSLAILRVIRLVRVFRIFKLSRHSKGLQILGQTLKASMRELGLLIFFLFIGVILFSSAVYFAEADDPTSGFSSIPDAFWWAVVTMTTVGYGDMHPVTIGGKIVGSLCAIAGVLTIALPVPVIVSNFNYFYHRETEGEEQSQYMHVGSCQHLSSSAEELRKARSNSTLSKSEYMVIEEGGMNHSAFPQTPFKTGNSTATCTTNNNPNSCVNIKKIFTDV

Row | SMILES | IC50 (Kv1.3 potassium channel) [µM] | IC50 (hERG channel) [µM]
1 | OC[C@@H]1CCN(Cc2cc(Cl)c(Cl)cc2O)[C@H](c2ccccc2)C1 (relative stereo) [Compound 10, 4,5-dichloro-2-(((2S,4R)-rel-4-(hydroxymethyl)-2-phenylpiperidin-1-yl)methyl)phenol] | < 10 | 
2 | OC[C@@H]1CCN(Cc2cc(Cl)c(Cl)cc2O)[C@@H](c2ccccc2)C1 (relative stereo) [Compound 11, 4,5-dichloro-2-(((2R,4R)-rel-4-(hydroxymethyl)-2-phenylpiperidin-1-yl)methyl)phenol] | < 10 | 
3 | C[C@@H]1C[C@@H](CO)CCN1Cc1cc(Cl)c(Cl)cc1O (relative stereo) [Compound 24, 4,5-dichloro-2-(((2R,4S)-rel-4-(hydroxymethyl)-2-methylpiperidin-1-yl)methyl)phenol] | < 10 | 
4 | C[C@H]1C[C@@H](CO)CCN1Cc1cc(Cl)c(Cl)cc1O (relative stereo) [Compound 29, 4,5-dichloro-2-(((2S,4S)-rel-4-(hydroxymethyl)-2-methylpiperidin-1-yl)methyl)phenol] | < 1 | < 30
5 | COC(=O)C1CC(CO)CCN1Cc1cc(Cl)c(Cl)cc1O (stereo not shown) [Compound 1, methyl 1-[(4,5-dichloro-2-hydroxyphenyl)methyl]-4-(hydroxymethyl)piperidine-2-carboxylate] | < 10 | 
6 | OCC1CCN(Cc2cc(Cl)c(Cl)cc2O)C(CO)C1 (stereo not shown) [Compound 2, (1-(4,5-dichloro-2-hydroxybenzyl)piperidine-2,4-diyl)dimethanol] | < 10 | 
7 | NCC1(N)CCN(Cc2cc(Cl)c(Cl)cc2O)CC1 [Compound 3, 2-((4-amino-4-(aminomethyl)piperidin-1-yl)methyl)-4,5-dichlorophenol] | < 1 | < 30
8 | NCC(c1cc(Cl)c(Cl)cc1O)N1CCC(CO)CC1 (stereo not shown) [Compound 4, 2-[2-amino-1-[4-(hydroxymethyl)piperidin-1-yl]ethyl]-4,5-dichlorophenol] | < 10 | 
9 | NCC1(CO)CCN(Cc2cc(Cl)c(Cl)cc2O)CC1 [Compound 5, 2-[[4-(aminomethyl)-4-(hydroxymethyl)piperidin-1-yl]methyl]-4,5-dichlorophenol] | < 1 | < 30
10 | O=C(N1CCCC1)C1(CO)CCN(Cc2cc(Cl)c(Cl)cc2O)CC1 [Compound 6, 4,5-dichloro-2-[[4-(hydroxymethyl)-4-[(pyrrolidin-1-yl)carbonyl]piperidin-1-yl]methyl]phenol] | < 10 | 
11 | C=CC(=O)NCC1(CO)CCN(Cc2cc(Cl)c(Cl)cc2O)CC1 [Compound 7, N-([1-[(4,5-dichloro-2-hydroxyphenyl)methyl]-4-(hydroxymethyl)piperidin-4-yl]methyl)prop-2-enamide] | < 1 | 
12 | CC(=O)NCC1(O)CCN(Cc2cc(Cl)c(Cl)cc2O)CC1 [Compound 8, N-([1-[(4,5-dichloro-2-hydroxyphenyl)methyl]-4-hydroxypiperidin-4-yl]methyl)acetamide] | < 10 | 
13 | NCC1(O)CCN(Cc2cc(Cl)c(Cl)cc2O)CC1 [Compound 9, 4-(aminomethyl)-1-[(4,5-dichloro-2-hydroxyphenyl)methyl]piperidin-4-ol trifluoroacetic acid] | < 1 | < 30
14 | CC(=O)NC1(CO)CCN(Cc2cc(Cl)c(Cl)cc2O)CC1 [Compound 12, N-[1-[(4,5-dichloro-2-hydroxyphenyl)methyl]-4-(hydroxymethyl)piperidin-4-yl]acetamide] | < 1 | > 30
15 | O=C(NCC1(CO)CCN(Cc2cc(Cl)c(Cl)cc2O)CC1)C(F)(F)F [Compound 13, N-([1-[(4,5-dichloro-2-hydroxyphenyl)methyl]-4-(hydroxymethyl)piperidin-4-yl]methyl)-2,2,2-trifluoroacetamide] | < 1 | 
16 | NC1(CO)CCN(Cc2cc(Cl)c(Cl)cc2O)CC1 [Compound 14, 2-[[4-amino-4-(hydroxymethyl)piperidin-1-yl]methyl]-4,5-dichlorophenol] | < 1 | < 30
17 | OCC1CCN(C(CO)c2cc(Cl)c(Cl)cc2O)CC1 (stereo not shown) [Compound 15, 4,5-dichloro-2-[2-hydroxy-1-[4-(hydroxymethyl)piperidin-1-yl]ethyl]phenol] | < 10 | 
18 | Cc1cc(O)c(CN2CCC(CO)CC2)cc1C [Compound 16, 2-[[4-(hydroxymethyl)piperidin-1-yl]methyl]-4,5-dimethylphenol] | < 10 | 
19 | Cc1cc(CN2CCC(CO)CC2)c(O)cc1Cl [Compound 17, 5-chloro-2-[[4-(hydroxymethyl)piperidin-1-yl]methyl]-4-methylphenol] | < 10 | 
20 | CCC(c1cc(Cl)c(Cl)cc1O)N1CCC(CO)CC1 (stereo not shown) [Compound 18, 4,5-dichloro-2-[1-[4-(hydroxymethyl)piperidin-1-yl]propyl]phenol] | < 10 | < 30
21 | Cc1cc(O)c(CN2CCC(CO)CC2)cc1Cl [Compound 19, 4-chloro-2-[[4-(hydroxymethyl)piperidin-1-yl]methyl]-5-methylphenol] | < 1 | > 30

Row | SMILES | IC50 (Kv1.3 potassium channel) [µM] | IC50 (hERG channel) [µM]
22 | Oc1cc(Cl)c(Cl)cc1CN1CCC(C2CCOCC2)CC1 [Compound 20, 4,5-dichloro-2-[[4-(oxan-4-yl)piperidin-1-yl]methyl]phenol] | < 1 | < 30
23 | CC(=O)NCC1(CO)CCN(Cc2cc(Cl)c(Cl)cc2O)CC1 [Compound 21, N-([1-[(4,5-dichloro-2-hydroxyphenyl)methyl]-4-(hydroxymethyl)piperidin-4-yl]methyl)acetamide] | < 1 | < 30
24 | OCC1(c2ccccc2)CCN(Cc2cc(Cl)c(Cl)cc2O)CC1 [Compound 22, 4,5-dichloro-2-[[4-(hydroxymethyl)-4-phenylpiperidin-1-yl]methyl]phenol] | < 1 | < 30
25 | CC(C)CC(c1cc(Cl)c(Cl)cc1O)N1CCC(CO)CC1 (stereo not shown) [Compound 23, 4,5-dichloro-2-[1-[4-(hydroxymethyl)piperidin-1-yl]-3-methylbutyl]phenol] | < 10 | 
26 | Oc1cc(Cl)c(Cl)cc1CN1CCc2[nH]ncc2C1 [Compound 25, 4,5-dichloro-2-((6,7-dihydro-1H-pyrazolo[4,3-c]pyridin-5(4H)-yl)methyl)phenol] | < 10 | < 30
27 | Oc1cc(Cl)c(Cl)cc1CN1CCC2(CC1)OCCC2O (stereo not shown) [Compound 26, 8-(4,5-dichloro-2-hydroxybenzyl)-1-oxa-8-azaspiro[4.5]decan-4-ol] | < 1 | < 30
28 | OCC1CCCN(Cc2cc(Cl)c(Cl)cc2O)CC1 (stereo not shown) [Compound 27, 4,5-dichloro-2-[[4-(hydroxymethyl)azepan-1-yl]methyl]phenol] | < 1 | < 30
29 | O=C(O)CC1CCN(Cc2cc(Cl)c(Cl)cc2O)CC1 [Compound 28, 2-(1-(4,5-dichloro-2-hydroxybenzyl)piperidin-4-yl)acetic acid] | < 10 | 
30 | OCC1(F)CCN(Cc2cc(Cl)c(Cl)cc2O)CC1 [Compound 31, 4,5-dichloro-2-[[4-fluoro-4-(hydroxymethyl)piperidin-l-yl]methyl]phenol] | < 10 | 
31 | O=C1CCOC12CCN(Cc1cc(Cl)c(Cl)cc1O)CC2 [Compound 33, 8-[(4,5-dichloro-2-hydroxyphenyl)methyl]-1-oxa-8-azaspiro[4.5]decan-4-one] | < 10 | 
32 | OCC1CCCCN1Cc1cc(Cl)c(Cl)cc1O (stereo not shown) [Compound 34, 4,5-dichloro-2-[[2-(hydroxymethyl)piperidin-1-yl]methyl]phenol] | < 10 | 
33 | Oc1cc(Cl)c(Cl)cc1CN1CCC2(CC1)OCCO2 [Compound 35, 4,5-dichloro-2-[1,4-dioxa-8-azaspiro[4.5]decan-8-ylmethyl]phenol trifluoroacetic acid] | < 10 | 
34 | OC[C@@H]1[C@H]2CN(Cc3cc(Cl)c(Cl)cc3O)C[C@@H]12 [Compound 36, 4,5-dichloro-2-(((1R,5S,6R)-6-(hydroxymethyl)-3-azabicyclo[3.1.0]hexan-3-yl)methyl)phenol] | < 10 | 
35 | Oc1cc(Cl)c(Cl)cc1CN1CCC(O)(O)CC1 [Compound 37, 1-(4,5-dichloro-2-hydroxybenzyl)piperidine-4,4-diol trifluoroacetic acid] | < 10 | 
36 | Oc1cc(Cl)c(Cl)cc1CN1CCC(n2cnnc2)CC1 [Compound 38, 4,5-dichloro-2-[[4-(4H-1,2,4-triazol-4-yl)piperidin-1-yl]methyl]phenol] | < 10 | 
37 | CS(=O)(=O)C1CCN(Cc2cc(Cl)c(Cl)cc2O)CC1 [Compound 41, 4,5-dichloro-2-((4-(methylsulfonyl)piperidin-1-yl)methyl)phenol] | < 10 | 
38 | Oc1cc(Cl)c(Cl)cc1CN1CCn2cnnc2C1 [Compound 43, 4,5-dichloro-2-[5H,6H,7H,8H-[1,2,4]triazolo[4,3-a]pyrazin-7-ylmethyl]phenol] | < 10 | 
39 | CC(c1cc(Cl)c(Cl)cc1O)N1CCC(CO)CC1 (stereo not shown) [Compound 46, 4,5-dichloro-2-[1-[4-(hydroxymethyl)piperidin-1-yl]ethyl]phenol] | < 10 | 
40 | OCC1CN(Cc2cc(Cl)c(Cl)cc2O)CCN1 (stereo not shown) [Compound 47, 4,5-dichloro-2-((3-(hydroxymethyl)piperazin-1-yl)methyl)phenol] | < 10 | 
41 | O=C1CCC2(CCN1)CCN(Cc1cc(Cl)c(Cl)cc1O)CC2 [Compound 59, 3-(4,5-dichloro-2-hydroxybenzyl)-3,9-diazaspiro[5.6]dodecan-10-one] | < 10 | 
